Values quoted from earlier work, collected in patent publication US20220273628A1, “EFFECTS OF LYSERGIC ACID DIETHYLAMIDE (LSD) AND OF LSD ANALOGS TO ASSIST PSY[…] G[…] DISORDER OR OTHER ANXIETY NOT RELATED TO LIFE-T[…]” (Universitätsspital Basel, priority 2021, published 2022).

What was measured:
5-HT2A receptor = 5-HT2A receptor (Homo sapiens, UniProt P28223); settings: cited from earlier work
[1] = tested on: patients with treatment-resistant depression; settings: 12 patients, cited from earlier work

5-HT2A receptor, sequence (P28223 whole entry): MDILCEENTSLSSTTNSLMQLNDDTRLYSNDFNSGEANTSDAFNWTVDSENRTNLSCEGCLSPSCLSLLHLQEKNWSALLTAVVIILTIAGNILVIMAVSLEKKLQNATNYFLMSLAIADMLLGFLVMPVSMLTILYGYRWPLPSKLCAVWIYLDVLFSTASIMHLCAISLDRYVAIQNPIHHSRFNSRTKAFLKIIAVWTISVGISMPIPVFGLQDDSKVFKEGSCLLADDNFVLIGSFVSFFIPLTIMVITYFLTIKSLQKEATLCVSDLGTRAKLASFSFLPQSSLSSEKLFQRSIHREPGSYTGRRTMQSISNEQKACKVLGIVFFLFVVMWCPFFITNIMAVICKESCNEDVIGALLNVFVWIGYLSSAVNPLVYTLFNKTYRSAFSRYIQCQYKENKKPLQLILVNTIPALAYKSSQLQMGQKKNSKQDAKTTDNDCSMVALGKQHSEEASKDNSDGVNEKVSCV

SMILES	activity at the 5-HT2A receptor (5-HT2A receptor)	transient anxiety during drug onset ([1]; 10 mg and 25 mg)	mild and transient nausea [1]	transient confusion or thought disorder [1]	transient headache [1]
CN(C)CCc1c[nH]c2ccccc12 [DMT, N,N-dimethyltryptamine]	agonists				
COc1cc(CCN)cc(OC)c1OC [mescaline]	agonists				
CN(C)CCc1c[nH]c2cccc(OP(=O)(O)O)c12 [psilocybin]		all patients	four	nine	four
